In patent US7932262B2 (Novartis AG, priority 2006, dated 2011):
Like-named read-outs stand apart in the source and are kept apart here.

Assays:
[1] = biological target: T1, PDK1 kinase (Homo sapiens, UniProt O15530); assay: PDK1 Kinase Alpha Screen Assay; type: biochemical
T1 sequence (O15530 1-556): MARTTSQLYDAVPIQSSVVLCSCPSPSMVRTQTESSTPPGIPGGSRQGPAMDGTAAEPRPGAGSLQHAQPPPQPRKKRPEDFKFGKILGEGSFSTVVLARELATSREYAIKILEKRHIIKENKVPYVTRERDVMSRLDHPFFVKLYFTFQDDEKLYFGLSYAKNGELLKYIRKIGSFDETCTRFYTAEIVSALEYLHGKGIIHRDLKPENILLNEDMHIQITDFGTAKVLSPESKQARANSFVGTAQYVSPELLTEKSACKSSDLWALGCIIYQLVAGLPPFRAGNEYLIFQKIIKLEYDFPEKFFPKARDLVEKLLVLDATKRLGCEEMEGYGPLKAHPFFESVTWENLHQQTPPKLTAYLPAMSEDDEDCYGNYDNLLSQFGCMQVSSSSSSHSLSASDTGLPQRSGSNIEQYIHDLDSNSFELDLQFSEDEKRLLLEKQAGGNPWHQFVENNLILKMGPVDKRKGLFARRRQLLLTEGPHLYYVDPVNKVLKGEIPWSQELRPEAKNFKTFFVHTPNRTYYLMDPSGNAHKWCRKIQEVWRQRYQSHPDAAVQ
Method in brief: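 Compound in DMSO added to PDK1-4 peptide; PDK1/ATP mix starts reaction (final 50 nM peptide, 10 uM ATP). Runs 3-18 hours, stopped with 90 mM EDTA buffer. Antibody/bead mix added, developed overnight at room temperature, then AlphaScreen signal read.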

[2] = system: PC-3 cells; assay: Cell Proliferation Assay (Cell Titer Glo), PC-3 cell line; type: cell-based
Method in brief: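 PC-3 cells, 1000 cells/well, left to adhere 3-5 h, then exposed for 3 days at 37° C to compounds as 1:3 serial dilutions from 500× DMSO stocks diluted in growth medium. Medium then replaced with fresh medium and viability read by Cell Titer Glo luminescence.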

[3] = PDK1 Kinase Alpha Screen Assay, read-out: PDK1 IC50
[4] = Homo sapiens, PC-3, Cell Proliferation Assay, PC3, read-out: CPEC50 PC3
[5] = Homo sapiens, PC-3, PC3 cells, read-out: CPEC50 PC3
[6] = Homo sapiens, PC-3, 72 h, PC-3 cells, 3 days incubation, read-out: CP EC50 PC3

SMILES | IC50 [1, 3] | EC50 [2, 4] | further results
O=C(c1ccc(Nc2ncc3cc(C4CC4)c(OC4CCNCC4)cc3n2)cc1)N1CCOCC1 [Compound 642, (4-(6-cyclopropyl-7-(piperidin-4-yloxy)quinazolin-2-ylamino)phenyl)(morpholino)methanone] | < 5 µM | < 5 µM | 
CC(C)NC(=O)c1ccc(Nc2ncc3cccc(-c4ccc(NCCN5CCCC5)nc4)c3n2)cc1 [Compound 993, N-isopropyl-4-(8-(6-(2-(pyrrolidin-1-yl)ethylamino)pyridin-3-yl)quinazolin-2-ylamino)benzamide] |  |  | IC50 ([1]; read-out: PDK1 IC50): < 5 µM; EC50 [2, 5]: < 5 µM
CC(C)NS(=O)(=O)c1ccc(Nc2ncc3c(Br)ccc(OC4CCNCC4)c3n2)cc1 [Compound 342, 4-(5-bromo-8-(piperidin-4-yloxy)quinazolin-2-ylamino)-N-isopropylbenzenesulfonamide] | < 5 µM | < 5 µM | 
O=C(c1ccc(Nc2ncc3c(Cl)ccc(OC4CCNCC4)c3n2)cc1Cl)N1CCOCC1 [Compound 692, (2-chloro-4-(5-chloro-8-(piperidin-4-yloxy)quinazolin-2-ylamino)phenyl) (morpholino)methanone] | < 5 µM | < 5 µM | 
FC(F)(F)c1ccc(OC2CCNCC2)c2nc(Nc3ccc(N4CCOCC4)cc3)ncc12 [Compound 385, N-(4-morpholinophenyl)-8-(piperidin-4-yloxy)-5-(trifluoromethyl)quinazolin-2-amine] | < 5 µM |  | EC50 ([2]; Cell Proliferation Assay, PC3, read-out: CPEC50 PC3): < 5 µM
Fc1ccc(Nc2ncc3cccc(-c4ccc(NCCN5CCCC5)nc4)c3n2)c(F)c1 [Compound 1017, N-(2,4-difluorophenyl)-8-(6-(2-(pyrrolidin-1-yl)ethylamino)pyridin-3-yl)quinazolin-2-amine] |  |  | IC50 ([1]; read-out: PDK1 IC50): < 5 µM; EC50 [2, 5]: < 5 µM
CS(=O)(=O)N1CCC(Oc2cccc3cnc(Nc4ccc(S(N)(=O)=O)cc4)nc23)CC1 [Compound 540, 4-(8-(1-(methylsulfonyl)piperidin-4-yloxy)quinazolin-2-ylamino)benzenesulfonamide] | < 5 µM | < 5 µM | 
CN(C)[C@@H]1CCN(Cc2cccc3cnc(Nc4ccc(S(N)(=O)=O)cc4)nc23)C1 [Compound 938, (R)-4-(8-((3-(dimethylamino)pyrrolidin-1-yl)methyl)quinazolin-2-ylamino)benzenesulfonamide] |  |  | IC50 ([1]; read-out: PDK1 IC50): < 5 µM; EC50 [2, 5]: 5 to 10 µM
CC(C)NC(=O)c1ccc(Nc2ncc3c(Cl)ccc(OC4CCNCC4)c3n2)cc1 [Compound 599, 4-(5-chloro-8-(piperidin-4-yloxy)quinazolin-2-ylamino)-N-isopropylbenzamide] | < 5 µM | < 5 µM | 
c1cc(OC2CCNCC2)c2nc(Nc3ccc(-c4cnco4)cc3)ncc2c1 [Compound 458, N-(4-(oxazol-5-yl)phenyl)-8-(piperidin-4-yloxy)quinazolin-2-amine] | < 5 µM | < 5 µM | 
Clc1cc(Nc2ncc3ccc(OC4CCNCC4)cc3n2)ccc1N1CCOCC1 [Compound 594, N-(3-chloro-4-morpholinophenyl)-7-(piperidin-4-yloxy)quinazolin-2-amine] | < 5 µM | < 5 µM | 
O=C(c1ccc(Nc2ncc3cccc(-c4ccc(NCCN5CCCC5)nc4)c3n2)cc1)N1CCOCC1 [Compound 403, morpholino(4-(8-(6-(2-(pyrrolidin-1-yl)ethylamino)pyridin-3-yl)quinazolin-2-ylamino)phenyl)methanone] | < 5 µM | < 5 µM | 
CN1CCN(C(=O)c2ccc(Nc3ncc4cccc(OC5CCNCC5)c4n3)cc2F)CC1 [Compound 478, (2-fluoro-4-(8-(piperidin-4-yloxy)quinazolin-2-ylamino)phenyl)(4-methylpiperazin-1-yl)methanone] | < 5 µM | < 5 µM | 
CN1CCC(Nc2ccc(Cl)c3cnc(Nc4ccc(C(=O)N5CCOCC5)cc4)nc23)CC1 [Compound 377, (4-(5-chloro-8-(1-methylpiperidin-4-ylamino)quinazolin-2-ylamino)phenyl) (morpholino)methanone] | < 5 µM | < 5 µM | 
O=S(=O)(c1cccc(Nc2ncc3cccc(-c4ccc(NCCN5CCCC5)nc4)c3n2)c1)N1CCOCC1 [Compound 399, N-(3-(morpholinosulfonyl)phenyl)-8-(6-(2-(pyrrolidin-1-yl)ethylamino)pyridin-3-yl)quinazolin-2-amine] | < 5 µM | < 5 µM | 
CN(C)C(=O)c1ccc(Nc2ncc3cccc(OC4CCNCC4)c3n2)cc1F [Compound 446, 2-fluoro-N,N-dimethyl-4-(8-(piperidin-4-yloxy)quinazolin-2-ylamino)benzamide] | < 5 µM | < 5 µM | 
c1ccc(Nc2ncc3cccc(-c4ccc(NCCN5CCCC5)nc4)c3n2)cc1 [Compound 426, N-phenyl-8-(6-(2-(pyrrolidin-1-yl)ethylamino)pyridin-3-yl)quinazolin-2-amine] | < 5 µM | < 5 µM | 
O=C(c1ccc(Nc2ncc3ccc(OC4CCNCC4)cc3n2)cc1)N1CCOCC1 [Compound 585, morpholilno(4-(7-(piperidin-4-yloxy)quinazolin-2-ylamino)phenyl)methanone] | < 5 µM | < 5 µM | 
CC(C)N1CCC(Oc2cccc3cnc(Nc4ccc(Cl)cc4)nc23)CC1 [Compound 84] |  |  | IC50 ([1]; read-out: PDK1 IC50): < 5 µM; EC50 [2, 6]: < 5 µM
CC(C)NC(=O)Cc1cccc(Nc2ncc3cccc(OC4CCN(C(C)C)CC4)c3n2)c1 [Compound 79, N-Isopropyl-2-{3-[8-(1-isopropyl-piperidin-4-yloxy)-quinazolin-2-ylamino]-phenyl}-acetamide] |  |  | IC50 ([1]; read-out: PDK1 IC50): < 5 µM; EC50 [2, 6]: < 5 µM
COc1c(-c2cnn(C)c2)cc(Cl)c2cnc(Nc3ccc(C(=O)N4CCOCC4)cc3)nc12 [Compound 1033, (4-(5-chloro-8-methoxy-7-(1-methyl-1H-pyrazol-4-yl)quinazolin-2-ylamino)phenyl)(morpholino)methanone] |  |  | IC50 ([1]; head of the second part of Table 4: BV11261, read-out: PDK1 BV11261): < 5 µM; EC50 [2, 5]: < 5 µM
CN1CCN(c2ccc(-c3cccc4cnc(Nc5cc(C(=O)O)cc(C(F)(F)F)c5)nc34)cn2)CC1 [Compound 467, 3-(8-(6-(4-methylpiperazin-1-yl)pyridin-3-yl)quinazolin-2-ylamino)-5-(trifluoromethyl)benzoic acid] | < 5 µM | < 5 µM | 
O=S(=O)(c1ccc(Nc2ncc3c(Br)ccc(OC4CCNCC4)c3n2)cc1)N1CCOCC1 [Compound 430, 5-bromo-N-(4-(morpholinosulfonyl)phenyl)-8-(piperidin-4-yloxy)quinazolin-2-amine] | < 5 µM | < 5 µM | 
Fc1cc(Nc2ncc3ccc(OC4CCNCC4)cc3n2)ccc1N1CCOCC1 [Compound 593, N-(3-fluoro-4-morpholinophenyl)-7-(piperidin-4-yloxy)quinazolin-2-amine] | < 5 µM | < 5 µM | 
c1cc(CN2CCOCC2)cc(Nc2ncc3cccc(-c4ccc(NCCN5CCCC5)nc4)c3n2)c1 [Compound 465, N-(3-(morpholinomethyl)phenyl)-8-(6-(2-(pyrrolidin-1-yl)ethylamino)pyridin-3-yl)quinazolin-2-amine] | < 5 µM | < 5 µM | 
CC(C)N1CCC(Oc2cc3nc(Nc4ccc(N5CCOCC5)cc4)ncc3cc2-c2cn[nH]c2)CC1 [Compound 621, 7-(1-isopropylpiperidin-4-yloxy)-N-(4-morpholinophenyl)-6-(1H-pyrazol-4-yl)quinazolin-2-amine] | < 5 µM | < 5 µM | 
CC(C)NC(=O)c1ccc(Nc2ncc3c(Br)ccc(OC4CCNCC4)c3n2)cc1 [Compound 337, 4-(5-bromo-8-(piperidin-4-yloxy)quinazolin-2-ylamino)-N-isopropylbenzamide] | < 5 µM | < 5 µM | 
NS(=O)(=O)c1ccc(Nc2ncc3cccc(-c4cncc(CN5CCCC5)c4)c3n2)cc1 [Compound 941, 4-(8-(5-(pyrrolidin-1-ylmethyl)pyridin-3-yl)quinazolin-2-ylamino)benzenesulfonamide] |  |  | IC50 ([1]; read-out: PDK1 IC50): < 5 µM; EC50 [2, 5]: < 5 µM
Cc1ccc(OC2CCNCC2)c2nc(Nc3cccc(F)c3)ncc12 [Compound 365, N-(3-fluorophenyl)-5-methyl-8-(piperidin-4-yloxy)quinazolin-2-amine] | < 5 µM | 5 to 10 µM | 
CN1CCN(c2ccc(-c3cccc4cnc(Nc5ccc(F)cc5)nc34)cn2)CC1 [Compound 999, N-(4-fluorophenyl)-8-(6-(4-methylpiperazin-1-yl)pyridin-3-yl)quinazolin-2-amine] |  |  | IC50 ([1]; read-out: PDK1 IC50): < 5 µM; EC50 [2, 5]: < 5 µM
